According to PubChem BioAssay (NCI):
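Grown in 96-well plates, cells were treated for 48 hours with each compound at five concentrations. Insufficient inhibition: endpoint recorded as highest concentration tested. GI50 = concentration required for 50% inhibition of growth. TGI denotes the concentration required for complete inhibition of growth.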

Legend:
Experiment in all cases: NCI-60 cell line screen, 48 h
[1] = tested on: COLO 205 colon
[2] = tested on: HCT-116 colon
[3] = tested on: M14 melanoma
[4] = tested on: SF-268 CNS
[5] = tested on: LOX IMVI melanoma
[6] = tested on: U251 CNS
[7] = tested on: HOP-62 NSCLC
[8] = tested on: NCI-H226 lung
[9] = tested on: OVCAR-4 ovarian
[10] = tested on: RXF 393 renal
[11] = tested on: UACC-257 melanoma
[12] = tested on: MDA-MB-231 breast
[13] = tested on: OVCAR-5 ovarian
[14] = tested on: SK-MEL-5 melanoma
[15] = tested on: EKVX NSCLC
[16] = tested on: SN12C renal
[17] = tested on: SNB-75 CNS
[18] = tested on: PC-3 prostate
[19] = tested on: OVCAR-8 ovarian
[20] = tested on: RPMI-8226 leukemia
[21] = tested on: IGROV1 ovarian
[22] = tested on: SK-MEL-28 melanoma
[23] = tested on: NCI-H23 lung
[24] = tested on: UO-31 renal
[25] = tested on: UACC-62 melanoma
[26] = tested on: K-562 leukemia
[27] = tested on: 786-0 renal
[28] = tested on: DU-145 prostate
[29] = tested on: HS 578T breast
[30] = tested on: HCT-15 colon
[31] = tested on: SF-539 CNS
[32] = tested on: NCI/ADR-RES ovarian
[33] = tested on: BT-549 breast
[34] = tested on: KM12 colon
[35] = tested on: SK-MEL-2 melanoma
[36] = tested on: ACHN renal
[37] = tested on: OVCAR-3 ovarian
[38] = tested on: SW-620 colon
[39] = tested on: MCF7 breast
[40] = tested on: HT29 colon
[41] = tested on: MOLT-4 leukemia
[42] = tested on: NCI-H460 lung
[43] = tested on: TK-10 renal
[44] = tested on: SK-OV-3 ovarian
[45] = tested on: A549 NSCLC
[46] = tested on: A498 renal
[47] = tested on: HCC-2998 colon
[48] = tested on: CAKI-1 renal
[49] = tested on: NCI-H522 lung
[50] = tested on: SNB-19 CNS
[51] = tested on: T-47D breast
[52] = tested on: MDA-MB-435
[53] = tested on: MALME-3M melanoma
[54] = tested on: SF-295 CNS

For `COC(=O)C1CC2(c3ccc(C)cc3)C(c3ccc(C)cc3)=C(c3ccc(C)cc3)C1(c1ccc(C)cc1)S2=O` (stereo not drawn), the GI50 [1] was > 100 µM, the TGI [1] was > 100 µM and the GI50 [2] was 73.2 µM. For the same molecule, the TGI [2] was > 100 µM, the GI50 [3] was > 100 µM and the TGI [3] was > 100 µM. The GI50 [4] was > 100 µM, the TGI [4] was > 100 µM and the GI50 [5] was > 100 µM. The TGI [5] was > 100 µM, the GI50 [6] was 65.1 µM and the TGI [6] was > 100 µM. The GI50 [7] was 34.8 µM, the TGI [7] was > 100 µM and the GI50 [8] was > 100 µM. The TGI [8] was > 100 µM, the GI50 [9] was 22.5 µM and the TGI [9] was 81.2 µM. For the same molecule, the GI50 [10] was 90.2 µM, the TGI [10] was > 100 µM and the GI50 [11] was > 100 µM. For the same molecule, the TGI [11] was > 100 µM, the GI50 [12] was > 100 µM and the TGI [12] was > 100 µM. The GI50 [13] was > 100 µM, the TGI [13] was > 100 µM and the GI50 [14] was > 100 µM. The TGI [14] was > 100 µM, the GI50 [15] was > 100 µM and the TGI [15] was > 100 µM. The GI50 [16] was > 100 µM, the TGI [16] was > 100 µM and the GI50 [17] was 10.6 µM. The TGI [17] was 29.6 µM, the GI50 [18] was > 100 µM and the TGI [18] was > 100 µM. For the same molecule, the GI50 [19] was 37.9 µM, the TGI [19] was > 100 µM and the GI50 [20] was > 100 µM. The TGI [20] was > 100 µM, the GI50 [21] was 98.4 µM and the TGI [21] was > 100 µM. The GI50 [22] was > 100 µM, the TGI [22] was > 100 µM and the GI50 [23] was > 100 µM. The TGI [23] was > 100 µM, the GI50 [24] was > 100 µM and the TGI [24] was > 100 µM. For the same molecule, the GI50 [25] was > 100 µM, the TGI [25] was > 100 µM and the GI50 [26] was > 100 µM. For the same molecule, the TGI [26] was > 100 µM, the GI50 [27] was 70.8 µM and the TGI [27] was > 100 µM. The GI50 [28] was > 100 µM, the TGI [28] was > 100 µM and the GI50 [29] was 48.6 µM. The TGI [29] was > 100 µM, the GI50 [30] was > 100 µM and the TGI [30] was > 100 µM. The GI50 [31] was > 100 µM, the TGI [31] was > 100 µM and the GI50 [32] was 85.5 µM. For the same molecule, the TGI [32] was > 100 µM, the GI50 [33] was > 100 µM and the TGI [33] was > 100 µM. For the same molecule, the GI50 [34] was > 100 µM, the TGI [34] was > 100 µM and the GI50 [35] was > 100 µM. For the same molecule, the TGI [35] was > 100 µM, the GI50 [36] was > 100 µM and the TGI [36] was > 100 µM. For the same molecule, the GI50 [37] was > 100 µM, the TGI [37] was > 100 µM and the GI50 [38] was > 100 µM. For the same molecule, the TGI [38] was > 100 µM, the GI50 [39] was > 100 µM and the TGI [39] was > 100 µM. The GI50 [40] was 41.4 µM, the TGI [40] was > 100 µM and the GI50 [41] was > 100 µM. The TGI [41] was > 100 µM, the GI50 [42] was > 100 µM and the TGI [42] was > 100 µM. The GI50 [43] was > 100 µM, the TGI [43] was > 100 µM and the GI50 [44] was > 100 µM. For the same molecule, the TGI [44] was > 100 µM, the GI50 [45] was > 100 µM and the TGI [45] was > 100 µM. The GI50 [46] was 4.88 µM, the TGI [46] was 50.5 µM and the GI50 [47] was > 100 µM. The TGI [47] was > 100 µM, the GI50 [48] was > 100 µM and the TGI [48] was > 100 µM. For the same molecule, the GI50 [49] was 96.3 µM, the TGI [49] was > 100 µM and the GI50 [50] was 36.2 µM. For the same molecule, the TGI [50] was > 100 µM, the GI50 [51] was 60.4 µM and the TGI [51] was > 100 µM. For the same molecule, the GI50 [52] was > 100 µM, the TGI [52] was > 100 µM and the GI50 [53] was > 100 µM. For the same molecule, the TGI [53] was > 100 µM, the GI50 [54] was 57.6 µM and the TGI [54] was > 100 µM.
